Consider 1 molecule from ChEMBL document CHEMBL1152468, “Fitness cost and impaired survival in penicillin-resistant Streptococcus gordonii isolates selected in the laboratory” (2008).

As a reminder, the MIC is the least concentration at which growth counts as inhibited. Lower therefore signals a more susceptible organism.

Experiment [1] relates to Streptococcus gordonii. In words: Antimicrobial activity against wild type Streptococcus gordonii. The experiment is classed as functional.
In experiment [2] the test system is Streptococcus gordonii. In words: Antimicrobial activity against penicillin-resistant Streptococcus gordonii PR1_2 mutant. The experiment is classed as functional.
In experiment [3] the test system is Streptococcus gordonii. Briefly: Antimicrobial activity against wild type Streptococcus gordonii assessed as generation time at mid-logarithmic phase of growth. It is filed as functional.
Experiment [4] deals with Streptococcus gordonii. Briefly: Antimicrobial activity against penicillin-resistant Streptococcus gordonii PR1_2 mutant assessed as generation time at mid-logarithmic phase of growth. It is filed as functional.
Experiment [5] has as its system Streptococcus gordonii. In words: Antimicrobial activity against penicillin-resistant Streptococcus gordonii PR1_2evolved mutant assessed as generation time at mid-logarithmic phase of growth. The experiment is classed as functional.
The subject of experiment [6] is Streptococcus gordonii. Briefly: Ratio of generation time for wild type Streptococcus gordonii to generation time for penicillin-resistant Streptococcus gordonii PR1_2 mutant at mid-logarithmic phase of growth. The experiment is classed as functional.
The test system of experiment [7] is Streptococcus gordonii. Briefly: Ratio of generation time for wild type Streptococcus gordonii to generation time for penicillin-resistant Streptococcus gordonii PR1_2evolved mutant at mid-logarithmic phase of growth. It is filed as functional.
The test system of experiment [8] is Streptococcus gordonii. Briefly: Antimicrobial activity against wild type Streptococcus gordonii assessed as logarithmic reduction in viability at stationary phase of growth after 70 hrs. The experiment is classed as functional.
For experiment [9], the system named is Streptococcus gordonii. Briefly: Antimicrobial activity against penicillin-resistant Streptococcus gordonii PR1_2 mutant assessed as logarithmic reduction in viability at stationary phase of growth after 70 hrs. It is filed as functional.
The test system of experiment [10] is Streptococcus gordonii. In words: Antimicrobial activity against penicillin-resistant Streptococcus gordonii PR1_2evolved mutant co-cultured with wild type Streptococcus gordoni assessed as loss of viability at stationary phase of growth at 0.5 ug/mL after 15 hrs. It is filed as functional, organism-based.
Experiment [11] relates to Streptococcus gordonii. In words: Antimicrobial activity against penicillin-resistant Streptococcus gordonii PR1_2evolved mutant co-cultured with wild type Streptococcus gordoni assessed as loss of viability at stationary phase of growth at 0.5 ug/mL after 70 hrs relative to wild type. The experiment is classed as functional, organism-based.

Converted amounts (≈) assume the structure as drawn. The source made the active and inactive calls. No cut-off for these calls is given here.

Take `CC1(C)S[C@@H]2[C@H](NC(=O)Cc3ccccc3)C(=O)N2[C@H]1C(=O)O` [PENICILLIN G]: the MIC came to 0.008 µg/mL (≈ 0.0239 µM) in [1] and 2 µg/mL (≈ 5.98 µM) in experiment [2]. For the same molecule, the Activity was 48.4 min in [3]; 60.6 min in [4]; 45 min in experiment [5]; 2 log10CFU/ml in [8]; above 4 log10CFU/ml in [9]. For the same molecule, the Ratio stood at 0.8 in experiment [6] and 1.06 in experiment [7]. Also, the result in experiment [10] and in [11] was Active.
